Test results published in patent publication US11219221B2 (FarmHannong Co., Ltd., priority 2017, dated 2022).

Key:
[1] = test system: Thermosynechococcus sp. NK55a PPO CyPPO17, wild type, SEQ ID NO: 3; assay: PPO enzyme kinetics (Vmax); assay type: biochemical; settings: substrate protoporphyrinogen IX
Procedure: (§1) Thus, PPO proteins of wild type and variants were expressed as fused to MBP and were used for experiments.
(§2) Overall process was performed in dark under nitrogen stream. […] of protoporphyrin IX was dissolved in 20 ml of 20% (v/v) EtOH, and stirred under dark condition for 30 minutes. The obtained protoporphyrin IX solution was put into a 15 ml screw tube in an amount of 800 μl, and flushed with nitrogen gas for 5 minutes. To this, 1.5 g of sodium amalgam was added and vigorously shaken for 2 minutes. The lid was opened to exhaust hydrogen gas in the tube. Thereafter, the lid was closed and incubated for 3 minutes. […] To determine the enzyme activity of PPO protein, a reaction mixture was prepared with the following composition (based on 10 ml): 50 mM Tris-Cl (pH 8.0); 50 mM NaCl; 0.04% (v/v) Tween 20; 40 mM glucose (0.072 g); 5 units glucose oxidase (16.6 mg); and 10 units catalase (1 μl).
(§3) Hundred and eighty microliters of a reaction mixture containing the purified PPO protein were placed in 96 well plates and 20 μl of […] were added. […] The reaction proceeded at room temperature for 30 min and the fluorescence of protoporphyrin IX was measured using Microplate reader (Sense, Hidex) (excitation: 405 nm; emission: 633 nm). […] To this, 2.7 N HCl was added, and the absorbance at 408 nm was measured. A standard curve was generated using standard protoporphyrin IX, and PPO activity was measured by calibration of protoporphyrin IX using the standard curve of protoporphyrin IX.
(§4) Meanwhile, the maximal velocity (Vmax) values of each enzyme were determined in order to evaluate the kinetic characteristics of CyPPO16 and CyPPO17. The initial reaction velocity was measured where the reaction velocity was proportional to concentration by varying the substrate concentration. The amount of produced protoporphyrin IX, the enzyme reaction product, was measured by time course at room temperature for 20 minutes. Vmax values were calculated with the enzyme kinetics analysis program by Michaelis-Menten equation.

[2] = test system: Spirulina subsalsa PPO CyPPO16, wild type, SEQ ID NO: 1; assay: PPO enzyme kinetics (Vmax); assay type: biochemical; settings: substrate protoporphyrinogen IX
Procedure: as §1, §2, §3, §4

[3] = test system: CyPPO16 wild type (SEQ ID NO: 1) in PPO-deficient E. coli BT3(ΔPPO); assay type: cell-based; settings: LB agar, 37° C., light, 16 to 20 hours
Procedure: (§5) The mutated CyPPO gene obtained from the Example 2 was transformed to BT3 (ΔPPO) strain which is deficient of PPO activity and cultured in LB media with PPO-inhibiting herbicide, thereby examining whether growth of transformed BT3 was not inhibited.
(§6) BT3 competent cells were transformed with the pET303-CyPPO16 and pET303-CyPPO17 plasmids and those with a mutation(s) constructed in Example 2 respectively, and were cultured in LB agar media containing carbenicillin (Gold Biotechnology, Co., Ltd.).
(§7) Single colony of E. coli transformed with each CyPPO gene was cultured in 3 ml of LB broth containing carbenicillin overnight, and then was subcultured until absorbance (0D600) reached 0.5 to 1. Then, it was diluted with LB broth to OD600=0.5. Again, the diluted solution was serially diluted 4 times by a factor of one tenth.
(§8) The LB agar media (LB 25 g/l, Bacto agar 15 g/l) containing carbenicillin (100 μg/ml) and 0 to 4,000 μM of various herbicides dissolved in DMSO was prepared. Next, 10 μl of each diluted solution was dropped on the plate and cultured at 37° C. under light (Tables 7 and 9, FIGS. 2 to 6, and 18 to 22) or dark (Tables 8 and 10, FIGS. 7 to 17, and 23 to 33) for 16 to 20 hours. Then, extent of tolerance was evaluated.
(§9) The extent of herbicide tolerance of the mutated genes was evaluated by comparing that of mutated genes with that of wild type. The relative tolerance was represented with “+” as a factor of 10 times. Evaluation result was listed in Tables 7 to10 and FIGS. 2 to 33:
(§10) In Tables 7 to 10, tolerance level was presented as of tolerance of wild type and of variants equivalent to that of wild type, and was done as ‘+’ per each 10 fold resistance until ‘+++++’ as maximal resistance. (Tolerance level was evaluated by relative growth level of variants to that of wild type in the media containing highest concentration of herbicide; ‘+’=1-9 fold higher tolerance, ‘++’=10-99 fold higher tolerance, ‘+++’=100-999 fold higher tolerance, ‘++++’=1,000-9,999 fold higher tolerance, ‘+++++’=more than 10,000 fold higher tolerance)

[4] = test system: CyPPO17 wild type (SEQ ID NO: 3) in PPO-deficient E. coli BT3(ΔPPO); assay type: cell-based; settings: LB agar, 37° C., light, 16 to 20 hours
Procedure: as §5, §6, §7, §8, §9, §10

[5] = test system: CyPPO16 (SEQ ID NO: 1) variant A162C in PPO-deficient E. coli BT3(ΔPPO); assay type: cell-based; settings: LB agar, 37° C., light, 16 to 20 hours
Procedure: as §5, §6, §7, §8
(§11) The extent of herbicide tolerance of the mutated genes was evaluated by comparing that of mutated genes with that of wild type. The relative tolerance was represented with “+” as a factor of 10 times.
(§12) In Tables 7 to 10, tolerance level was presented as of tolerance of wild type and of variants equivalent to that of wild type, and was done as ‘+’ per each 10 fold resistance until ‘+++++’ as maximal resistance.

[6] = test system: CyPPO17 (SEQ ID NO: 3) variant F359C in PPO-deficient E. coli BT3(ΔPPO); assay type: cell-based; settings: LB agar, 37° C., light, 16 to 20 hours
Procedure: as §5, §6, §7, §8, §11, §12

[7] = test system: CyPPO16 (SEQ ID NO: 1) variant F360M in PPO-deficient E. coli BT3(ΔPPO); assay type: cell-based; settings: LB agar, 37° C., light, 16 to 20 hours
Procedure: as §5, §6, §7, §8, §11, §12

[8] = test system: CyPPO17 (SEQ ID NO: 3) variant V304L in PPO-deficient E. coli BT3(ΔPPO); assay type: cell-based; settings: LB agar, 37° C., light, 16 to 20 hours
Procedure: as §5, §6, §7, §8, §11, §12

[9] = test system: CyPPO16 (SEQ ID NO: 1) variant F360L in PPO-deficient E. coli BT3(ΔPPO); assay type: cell-based; settings: LB agar, 37° C., light, 16 to 20 hours
Procedure: as §5, §6, §7, §8, §11, §12

[10] = test system: CyPPO16 (SEQ ID NO: 1) variant F360C in PPO-deficient E. coli BT3(ΔPPO); assay type: cell-based; settings: LB agar, 37° C., light, 16 to 20 hours
Procedure: as §5, §6, §7, §8, §11, §12

[11] = test system: CyPPO16 (SEQ ID NO: 1) variant F360I in PPO-deficient E. coli BT3(ΔPPO); assay type: cell-based; settings: LB agar, 37° C., light, 16 to 20 hours
Procedure: as §5, §6, §7, §8, §11, §12

[12] = test system: CyPPO17 (SEQ ID NO: 3) variant F359M in PPO-deficient E. coli BT3(ΔPPO); assay type: cell-based; settings: LB agar, 37° C., light, 16 to 20 hours
Procedure: as §5, §6, §7, §8, §11, §12

[13] = test system: CyPPO17 (SEQ ID NO: 3) variant A166C in PPO-deficient E. coli BT3(ΔPPO); assay type: cell-based; settings: LB agar, 37° C., light, 16 to 20 hours
Procedure: as §5, §6, §7, §8, §11, §12

[14] = test system: CyPPO17 (SEQ ID NO: 3) variant A166L in PPO-deficient E. coli BT3(ΔPPO); assay type: cell-based; settings: LB agar, 37° C., light, 16 to 20 hours
Procedure: as §5, §6, §7, §8, §11, §12

[15] = test system: CyPPO16 (SEQ ID NO: 1) variant A162L in PPO-deficient E. coli BT3(ΔPPO); assay type: cell-based; settings: LB agar, 37° C., light, 16 to 20 hours
Procedure: as §5, §6, §7, §8, §11, §12

[16] = test system: CyPPO17 (SEQ ID NO: 3) variant V304M in PPO-deficient E. coli BT3(ΔPPO); assay type: cell-based; settings: LB agar, 37° C., light, 16 to 20 hours
Procedure: as §5, §6, §7, §8, §11, §12

[17] = test system: CyPPO16 (SEQ ID NO: 1) variant F360V in PPO-deficient E. coli BT3(ΔPPO); assay type: cell-based; settings: LB agar, 37° C., light, 16 to 20 hours
Procedure: as §5, §6, §7, §8, §11, §12

[18] = test system: CyPPO17 (SEQ ID NO: 3) variant F359I in PPO-deficient E. coli BT3(ΔPPO); assay type: cell-based; settings: LB agar, 37° C., light, 16 to 20 hours
Procedure: as §5, §6, §7, §8, §11, §12

[19] = test system: CyPPO17 (SEQ ID NO: 3) variant F359L in PPO-deficient E. coli BT3(ΔPPO); assay type: cell-based; settings: LB agar, 37° C., light, 16 to 20 hours
Procedure: as §5, §6, §7, §8, §11, §12

[20] = test system: CyPPO16 (SEQ ID NO: 1) variant V305M in PPO-deficient E. coli BT3(ΔPPO); assay type: cell-based; settings: LB agar, 37° C., light, 16 to 20 hours
Procedure: as §5, §6, §7, §8, §11, §12

[21] = room temperature, 20 min time course, Michaelis-Menten

C=Cc1c2[nH]c(c1C)Cc1[nH]c(c(CCC(=O)O)c1C)Cc1[nH]c(c(C)c1CCC(=O)O)Cc1[nH]c(c(C)c1C=C)C2 [protoporphyrinogen IX]
378 nmole mg protein^−1 min^−1: Vmax [1, 21]
more than two times higher: Vmax compared with AtPPO1 [1] | Vmax compared with AtPPO1 [2]
336 nmole mg protein^−1 min^−1: Vmax [2, 21]

CC(C)N(C)S(=O)(=O)NC(=O)c1cc(-n2c(=O)cc(C(F)(F)F)n(C)c2=O)c(F)cc1Cl [saflufenacil]
+++ (100-999 fold higher tolerance): Herbicide tolerance (relative to wild type) [5] | Herbicide tolerance (relative to wild type) [6] | Herbicide tolerance (relative to wild type) [7] | Herbicide tolerance (relative to wild type) [9] | Herbicide tolerance (relative to wild type) [10] | Herbicide tolerance (relative to wild type) [11] | Herbicide tolerance (relative to wild type) [12] | Herbicide tolerance (relative to wild type) [13] | Herbicide tolerance (relative to wild type) [14] | Herbicide tolerance (relative to wild type) [15] | Herbicide tolerance (relative to wild type) [16] | Herbicide tolerance (relative to wild type) [17] | Herbicide tolerance (relative to wild type) [18] | Herbicide tolerance (relative to wild type) [19] | Herbicide tolerance (relative to wild type) [20]
+ (1-9 fold higher tolerance): Herbicide tolerance (relative to wild type) [8]
−: Herbicide tolerance (relative to wild type) [3] | Herbicide tolerance (relative to wild type) [4]
